Assay results taken from the PolyMetriX glass transition set.
± gives the standard deviation of the reports.

| Structure (SMILES) | glass transition temperature |
| --- | --- |
| *Oc1ccc(S(=O)(=O)c2ccc(Oc3ccc(C4(c5ccc(*)cc5)C5CC6CC(C5)CC4C6)cc3)cc2)cc1 (repeat unit) | 297.00 °C |
| *Oc1ccc(C(*)=O)cc1CCCCC (repeat unit) | 50.00 °C |
| *C(=O)c1ccc2c(c1)C(=O)N(c1ccc(Oc3ccc(C(=O)c4ccc5cc(C(=O)c6ccc(Oc7ccc(N8C(=O)c9ccc(*)cc9C8=O)cc7)cc6)ccc5c4)cc3)cc1)C2=O (repeat unit) | 246.00 °C |
| *CCCCCCCCCCCC(=O)Oc1ccc2cc(OC(=O)CCCCCCCCCCCn3c(=O)c4cc5c(=O)n(*)c(=O)c5cc4c3=O)ccc2c1 (repeat unit) | 62.00 °C |
| *c1ccc(C(c2ccccc2)c2ccc(N3C(=O)c4ccc(Oc5ccc6c(c5)C(=O)N(*)C6=O)cc4C3=O)cc2)cc1 (repeat unit) | 269.00 °C |
| *c1ccc2c(c1)C(=O)N(c1cccc(C(F)(F)C(F)(F)C(F)(F)C(F)(F)C(F)(F)c3cccc(N4C(=O)c5ccc(C(F)(F)C(F)(F)C(*)(F)F)cc5C4=O)c3)c1)C2=O (repeat unit) | 111.00 °C |
| *Oc1ccc(C(C)(C)c2ccc(Oc3ccc(C(=O)c4cccc5cccc(C(=O)c6ccc(*)cc6)c45)cc3)cc2)cc1 (repeat unit) | 210.50 °C |
| *CCCCCOC(=O)NCCCCCCNC(=O)O* (repeat unit) | 33.00 °C |
| *CCCCCCCCNC(=O)CCCCCCCCCCC(=O)N* (repeat unit) | 50.00 °C |
| *c1cccc(P(=O)(c2ccc(C(F)(F)F)cc2)c2cccc(-n3c(=O)c4cc5c(=O)n(*)c(=O)c5c(-c5cc(C(F)(F)F)cc(C(F)(F)F)c5)c4c3=O)c2)c1 (repeat unit) | 290.00 °C |
| *COc1ccc(C(=C(Cl)Cl)c2ccc(O*)cc2)cc1 (repeat unit) | 108.00 °C |
| *Oc1ccc(S(=O)(=O)N(C)CCCCN(C)S(=O)(=O)c2ccc(Oc3ccc(C(C)(C)c4ccc(*)cc4)cc3)cc2)cc1 (repeat unit) | 120.00 °C |
| *CN1C(=O)c2ccc(C(c3ccc4c(c3)C(=O)N(Cc3nnc(-c5ccc(-c6nnc(*)o6)c(Oc6ccccc6)c5)o3)C4=O)(C(F)(F)F)C(F)(F)F)cc2C1=O (repeat unit) | 208.00 °C |
| *c1ccc(NC(=O)c2cccc(C(=O)Nc3ccc(S(*)(=O)=O)cc3)c2)cc1 (repeat unit) | 78.00 °C |
| *Nc1cc([N+](=O)[O-])c(NC(=O)CCCCCCCCCCC(*)=O)cc1/C=C/c1ccc(N(C)C)cc1 (repeat unit) | 144.00 °C |
| */C=C(\C#N)C(=O)OCCCCCCCCCCOC(=O)/C(C#N)=C/c1ccc2c(c1)c1cc(*)ccc1n2CCCCCCC (repeat unit) | 59.00 °C |
| *OC(CCCCC)CC(*)=O (repeat unit) | -33.00 °C |
| *c1ccc2c(c1)C(=O)N(c1cccc(Oc3cc(Oc4cccc(N5C(=O)c6ccc(C(*)(C(F)(F)F)C(F)(F)F)cc6C5=O)c4)ccc3P(=O)(c3ccccc3)c3ccccc3)c1)C2=O (repeat unit) | 230.00 °C |
| *Nc1cccc(NC(=O)Cc2cc(CC(*)=O)c(C)cc2C)c1 (repeat unit) | 222.00 °C |
| *CC(*)(C)C(=O)OCCCCCCCCCCOc1ccc(C#Cc2cc(C)c(/C=C/c3ccncc3)cc2C)cc1 (repeat unit) | 65.40 °C |
| *c1ccc(Oc2ccc(-c3ccc(Oc4ccc(N5C(=O)C(c6ccccc6)=C(c6ccc(C7=C(c8ccccc8)C(=O)N(*)C7=O)cc6)C5=O)cc4)cc3)cc2)cc1 (repeat unit) | 282.00 °C |
| *Oc1c(Br)cc(*)cc1Br (repeat unit) | 196.00 °C |

| Structure (SMILES) | glass transition temperature |
| --- | --- |
| *CCCCCCNC(=O)CCP(=O)(CCC(=O)N*)c1ccccc1 (repeat unit) | 29.00 °C |
| *CCN(CCOC(=O)CCC#CC#CCCC(=O)O*)c1ccc([N+](=O)[O-])cc1 (repeat unit) | 30.00 °C |
| *C(=O)OCCCCCCCCOC(=O)c1ccc(N2C(=O)c3ccc(*)cc3C2=O)cc1 (repeat unit) | 65.00 °C |
| *CC(*)(C)C(=O)OCC1CCCO1 (repeat unit) | 105.00 °C |
| *C(=O)c1cccc(C(=O)c2ccc3c(c2)C(=O)N(c2ccc(Oc4ccc(S(=O)(=O)c5ccc(Oc6ccc(N7C(=O)c8ccc(*)cc8C7=O)cc6)cc5)cc4)cc2)C3=O)c1 (repeat unit) | 249.00 °C |
| *C(=O)c1cc2c(cc1Cl)C(=O)N(c1cccc(N3C(=O)c4cc(*)c(Cl)cc4C3=O)c1)C2=O (repeat unit) | 313.00 °C |
| *CC(O)COC(=O)CCCCC(=O)OCC(O)COc1ccc(C(C)(C)c2ccc(O*)cc2)cc1 (repeat unit) | 34.00 °C |
| *CCCCCCC(=O)N* (repeat unit) | 52.00 °C |
| *Oc1ccc(C(=O)c2ccc(Oc3ccc(C(c4ccc(*)cc4)(C(F)(F)F)C(F)(F)F)cc3)cc2)c2ccccc12 (repeat unit) | 190.00 °C |
| */C(C#N)=C/c1ccc(N(CC)Cc2ccccc2CN(CC)c2ccc(/C=C(\C#N)S(*)(=O)=O)cc2)cc1 (repeat unit) | 190.00 °C |
| *Nc1ccc(C(=O)c2ccc(NC(=O)c3ccc(C(*)=O)cc3)cc2)cc1 (repeat unit) | 300.00 °C |
| *OC(C)COC(=O)c1ccccc1C(*)=O (repeat unit) | 95.00 °C |
| *c1ccc(CC(=O)Nc2ccc(Oc3ccc(NC(=O)Cc4ccc(-c5sc(*)c(-c6ccccc6)c5-c5ccccc5)cc4)cc3)cc2)cc1 (repeat unit) | 226.00 °C |
| *Oc1ccc(-c2ccc(Oc3ccc(C(=O)c4ccc(C(=O)c5ccc(*)cc5)cc4)cc3)cc2)cc1 (repeat unit) | 173.00 °C |
| *Oc1c(Cl)cc(*)cc1Br (repeat unit) | 188.50 °C |
| *C(=O)c1ccc2c(c1)C(=O)N(c1cc(N3C(=O)c4ccc(*)cc4C3=O)c(O)cc1O)C2=O (repeat unit) | 324.00 °C |
| *C1C(*)C2CC1C(COCc1ccccc1)C2COCc1ccccc1 (repeat unit) | 176.00 °C |
| *Oc1ccc(S(=O)(=O)c2ccc(OC(=O)c3cc(CCCCC)cc(C(*)=O)c3)cc2)cc1 (repeat unit) | 170.00 °C |
| *C/C=C/C[Si](*)(C)CCCOc1ccc2ccccc2c1 (repeat unit) | -1.00 °C |
| *C(=O)Nc1ccc(S(=O)(=O)c2ccc(NC(=O)c3ccc4c(c3)C(=O)N(c3cccc(P(=O)(c5ccccc5)c5cccc(N6C(=O)c7ccc(*)cc7C6=O)c5)c3)C4=O)cc2)cc1 (repeat unit) | 241.00 °C |
| *CCCCOC(=O)CCC(=O)O* (repeat unit) | -32.00 °C |
| *CC(*)c1ccccc1Cl (repeat unit) [Poly(2-chlorostyrene)] | 118.92 ± 2.1 °C |

| Structure (SMILES) | glass transition temperature |
| --- | --- |
| *c1ccc(-c2ccc(-n3c(=O)c4c(C(F)(F)F)c5c(=O)n(*)c(=O)c5c(C(F)(F)F)c4c3=O)cc2C(F)(F)F)c(C(F)(F)F)c1 (repeat unit) | 304.00 °C |
| *Oc1cccc(Oc2ccc(NC(=O)c3ccc(-c4ccc(C(=O)Nc5ccc(*)cc5)c(C)c4)cc3C)cc2)c1 (repeat unit) | 213.00 °C |
| *c1ccc(Oc2ccc(N3C(=O)CC4C(CC5C(=O)N(*)C(=O)C54)C3=O)cc2)cc1 (repeat unit) | 350.00 °C |
| *OC(F)(C(*)(F)F)C(F)(F)F (repeat unit) | -73.00 °C |
| *CC(COC(=O)CCCCCN1C(=O)C2C3C=CC(C3)C2C1=O)O* (repeat unit) | 1.00 °C |
| *c1ccc(Oc2ccc(-c3nc4cc(Oc5ccc6nc(-c7ccccc7)c(*)nc6c5)ccc4nc3-c3ccccc3)cc2)cc1 (repeat unit) | 263.00 °C |
| *c1cc(C)c(Cc2cc(C)c(N3C(=O)c4ccc(Oc5ccc(Oc6ccc7c(c6)C(=O)N(*)C7=O)cc5)cc4C3=O)cc2C)cc1C (repeat unit) | 278.00 °C |
| *CC(COc1c(Cl)cc(C(C)(C)c2cc(Cl)c(O*)c(Cl)c2)cc1Cl)OC(C)=O (repeat unit) | 100.00 °C |
| *c1ccc2c(c1)Sc1cc(-c3ccc(-c4ccc(*)s4)s3)ccc1N2CCCCCC (repeat unit) | 140.00 °C |
| *C(=O)Nc1ccc(Oc2ccc(NC(=O)c3ccc4c(c3)C(=O)N(c3ccc(Oc5cccc6c(N7C(=O)c8ccc(*)cc8C7=O)cccc56)cc3)C4=O)cc2)cc1 (repeat unit) | 278.00 °C |
| *c1ccc(*)[nH]1 (repeat unit) [Poly(pyrrole)] | 86.42 ± 23 °C |
| *Cc1cc2cc(C(=O)Nc3ccc(-c4ccc(NC(=O)c5cc6cc(*)c(OC(=O)COc7ccc8ccc(=O)oc8c7)cc6oc5=O)cc4)cc3)c(=O)oc2cc1OC(=O)COc1ccc2ccc(=O)oc2c1 (repeat unit) | 248.00 °C |
| *c1ccc(Cc2ccc(N3C(=O)N(c4ccc(Cc5ccc(N6C(=O)N(*)C(C)(C)C6=O)cc5)cc4)C(=O)C3(C)C)cc2)cc1 (repeat unit) | 259.50 °C |
| *CC(*)C(=O)OCCN(CC)c1ccc(/N=N/c2ccc([N+](=O)[O-])cc2)cc1 (repeat unit) | 102.00 °C |
| *C(=S)Nc1ccc(Oc2ccc(NC(=S)N3C(=O)c4ccc(C(=O)c5ccc6c(c5)C(=O)N(*)C6=O)cc4C3=O)cc2)cc1 (repeat unit) | 262.00 °C |
| *c1ccc(-c2cc(CCCCCCCC)c(-c3ccc(-c4sc(*)cc4CCCCCCCC)cc3)s2)cn1 (repeat unit) | 16.20 °C |
| *CC(COc1ccc(C(C)(C)c2ccc(O*)cc2)cc1)OC(=O)c1ccccc1Cl (repeat unit) | 66.00 °C |
| *Oc1ccc(-c2ccc(OC(=O)/C=C/c3ccc(/C=C/C(*)=O)cc3)cc2)cc1 (repeat unit) | 243.00 °C |
| *CC(CCCCCCOc1ccc(/N=N/c2ccc(C)cc2)cc1)COC(=O)CCCCC(=O)O* (repeat unit) | 29.00 °C |
| *CCCCCCCCCCCC(=O)Oc1ccc2ccc(OC(=O)c3ccc4c(c3)C(=O)N(*)C4=O)cc2c1 (repeat unit) | 98.00 °C |
| *c1ccc(N2C(=O)c3ccc(Oc4ccc(C(C)(C)c5cccc(Oc6ccc7c(c6)C(=O)N(*)C7=O)c5)cc4)cc3C2=O)cc1 (repeat unit) | 268.00 °C |
